Assay results taken from patent US8293726B2, “Treatment of cancer and other diseases” (Vianova Labs, Inc., priority 2005, dated 2012).
Values joined by “and” are separate entries in the source; they are usually repeats but may differ in a detail not shown here. Equal values may be shown once.

What was measured:
[1] = system: left squamous-cell carcinoma of the lung; experiment: Patient case: squamous-cell carcinoma of the lung; assay type: in vivo, human
Description: A patient with presented with a left squamous-cell carcinoma of the lung. […] Seven months later the patient received radiotherapy to the left lung. […] The patient undergoes a left pneumonectomy and drug therapy is stopped, but the tumor recurs and the patient dies.

uterine cancer stage IIB = experiment: Patient case: recurrent uterine cancer; assay type: in vivo, human; conditions: 60 mg/day, within three months; recurrent 3.2 cm pelvic mass before
Description: A patient presented with uterine cancer stage IIB. They previously received cisplatin-based chemotherapy and radiotherapy. […] A cervical biopsy confirms the recurrence. […] Within three months, the tumor had disappeared on clinical exam and abdomino-pelvic CT scan.

[2] = system: human tumor cell line: squamous-cell carcinoma of the lung; experiment: Human tumor cell lines in immunocompromised mice (intraperitoneal, ascitis): squamous lung; assay type: in vivo; conditions: treated mice (4, 2 and 0.8 mg/kg/day orally for 10 days)
Description: (§1) Immunocompromised mice were used for this experiment. Mice were inbred in a sterile environment and fed ad libitum. Four groups of 40 mice, weighing approximately 20 g each (range: 17-25 g), were used for each tumor type. The human tumor cell lines used were the following: large B-cell lymphoma; squamous-cell carcinoma of the lung; ductal carcinoma breast; and adenocarcinoma of the lung. A suspension of tumor cells was injected in the peritoneum of immunocompromised mice. Following this, mice were examined and weighed daily. After 6-8 days, we observed the development of abdominal carcinomatosis and […]. At day 18, we observed the development of an abundant […], which increased the weight of the mice by approximately 20 g. At that time, mice were divided into four groups of 10. […] Assessment of tumor cell concentration in the […] abdominal metastases were measured on day 18 and every 2 days thereafter. In all mice, prior to treatment, we observed an increase in LDH ESR (>100) and a decrease in the hematocrit. Control (untreated) mice all died between day 21 and day 25 in all tumor types. […] Complete response: Weight (and ascetic) loss and the disappearance of all abdominal metastatic nodules and tumor cells. Partial response: Weight (and ascitic) loss and at least 25% decrease of tumor cell in the […] least 25% decrease in measured abdominal metastatic nodules. […] Progressive disease: When we observed an increase in […] or tumor volume or death of the animal.

[3] = system: human tumor cell line: large B-cell lymphoma; experiment: Human tumor cell lines in immunocompromised mice (intraperitoneal, ascitis): lymphoma; assay type: in vivo; conditions: treated mice (4, 2 and 0.8 mg/kg/day orally for 10 days)
Description: as §1

[4] = system: human tumor cell line: ductal carcinoma breast; experiment: Human tumor cell lines in immunocompromised mice (intraperitoneal, ascitis): breast; assay type: in vivo; conditions: Breast CA; treated mice (4, 2 and 0.8 mg/kg/day orally for 10 days)
Description: as §1

[5] = system: breast cancer stage IV with lung and bone metastases; experiment: Patient case: breast cancer stage IV with lung and bone metastases, CA 15-3; assay type: in vivo, human; conditions: for CA 15-3: Femara, Decapeptyl
Description: A patient presented with breast cancer stage IV with lung and bone metastases. They previously underwent a left radical mastectomy for a stage 2 colloidal mucinous adenocarcinoma Hormone receptors and c-erb B were negative. They received adjuvant chemotherapy (FAC) followed by radiotherapy. Later, a sternal bone metastasis appeared and was resected. […] They also developed lung metastases up to 4 cm size. They received chemotherapy with taxotere, navelbine, and pamidronate, followed by tamoxifen. This treatment gave an almost complete response in the lungs. Tamoxifen was replaced by Femara. The patient received radiotherapy on the spine (T4 and T1 2) and Zometa is administered along with Femara. […] Zometa and Femara were continued and Decapeptyl was added to the treatment.

[6] = system: poorly differentiated lobular carcinoma of the right breast; experiment: Patient case: stage IV lobular breast carcinoma with liver, spleen and bone metastases; assay type: in vivo, human
Description: A patient with a past medical history of anemia and mild chronic renal failure due to retroperitoneal fibrosis presented with a stage IV poorly differentiated lobular carcinoma of the right breast and liver, spleen and bone metastases. […] Three days after treatment, we observed a decrease in LDH level from 450 to 204.

[7] = system: pancreatic adenocarcinoma; experiment: Patient case: pancreatic adenocarcinoma, CA 19-9; assay type: in vivo, human; design: CA 19-9: unit not given beside the values
Description: A diabetic and insulin dependent patient with a past history of lymphoma presented with a 3 cm tumor in the head of pancreas and a suspicion of hepatic metastasis.

[8] = system: human tumor cell line: adenocarcinoma of the lung; experiment: Human tumor cell lines in immunocompromised mice (intraperitoneal, ascitis): lung adenocarcinoma; assay type: in vivo; conditions: treated mice (4, 2 and 0.8 mg/kg/day orally for 10 days)
Description: as §1

For `CC[C@H](CC[C@@H](C)[C@H]1CC[C@H]2[C@@H]3C[C@H](O)[C@@]4(O)C[C@@H](O)CC[C@]4(C)[C@H]3CC[C@]12C)C(C)C` [24-ethyl-cholestane-3β,5α,6α-triol], the general condition ([1]; 50 mg/day, after commencing therapy) was “drastic and rapid improvement”, the fibroscopy ([1]; fourteen months after therapy commenced) was “normal” and the late outcome ([1]; nearly five years after commencement of therapy) was “recurrence of the left lung tumor”. The left lung opacity ([1]; nine months after commencing treatment, radiotherapy to the left lung at seven months) was “significant regression”, the “tumor on clinical exam and abdomino-pelvic CT scan” value (uterine cancer stage IIB) was “disappeared” and the “Complete Remission” value [2] was 50%. The “Partial Remission” value [2] was 30%, the “Progressive Disease” value [2] was 0% and the “Stable Disease” value [2] was 20%. The “Symptomatic Response” value [2] was 100%, the “Complete Remission” value [3] was 80% and the “Partial Remission” value [3] was 10%. For the same compound, the “Progressive Disease” value [3] was 0%, the “Stable Disease” value [3] was 10% and the “Symptomatic Response” value [3] was 100%. For the same compound, the “Complete Remission” value [4] was 60%, the “Partial Remission” value [4] was 20% and the “Progressive Disease” value [4] was 0%. The “Stable Disease” value [4] was 20%, the “Symptomatic Response” value [4] was 100% and the “CA 15-3” value ([5]; Month 5, 60 mg/day with Zometa, Month 0 prior to treatment 277 (nl < 35)) was 156 U. The “CA 15-3” value ([5]; Month 6, 60 mg/day with Zometa) was 85 U and 52 U, the “CA 15-3” value ([5]; Month 14, 60 mg/day with Zometa) was 24 U and the “CA 15-3” value ([5]; Month 16, 60 mg/day with Zometa) was 19.5 U. The symptoms ([5]; two weeks after the beginning of LC) was “totally asymptomatic”, the “CA 125” value ([6]; After LC (five months), 60 mg/day, Before LC 125) was 69 and the “CA 15-3” value ([6]; After LC (five months), 60 mg/day, Before LC 237) was 86. The “renal failure and anemia” value ([6]; after treatment, 60 mg/day) was “improved”, the “spleen metastasis on CT scan” value ([6]; after treatment, 60 mg/day) was “regressed” and the “total Body MRI” value ([6]; after treatment, 60 mg/day) was “complete liver and spleen response”. The “primitive breast mass on ultrasound” value ([6]; after treatment, regressed from 5) was 3 cm, the “liver enzymes including LDH” value ([6]; five months after treatment commenced, 60 mg/day) was “returned to normal” and the LDH level ([6]; three days after treatment, 60 mg/day, decrease from 450) was 204. The “CA 19-9” value ([7]; Day 1, 50 mg/day, Day 0 prior to treatment 884 (nl < 37)) was 793, the “CA 19-9” value ([7]; Day 32, 50 mg/day) was 675 and the “CA 19-9” value ([7]; Day 59, 50 mg/day (dose then increased to 60 mg/day)) was 1127. For the same compound, the “CA 19-9” value ([7]; Day 128, 60 mg/day) was 545, the “CT scan of the abdomen, pancreas” value ([7]; Day 200 of therapy, 3 cm tumor in the head of pancreas before) was “no masses seen” and the “Complete Remission” value [8] was 40%. The “Partial Remission” value [8] was 20%, the “Progressive Disease” value [8] was 10% and the “Stable Disease” value [8] was 30%. For the same compound, the “Symptomatic Response” value [8] was 100%.
